pIC50: −log10 of the molar value.

Experiment [1] concerns the target JAK1 (recombinant purified GST-tagged catalytic domain) (Homo sapiens (Human), UniProt P23458). In words: Jak Biochemical HTRF Assay (JAK1). The conditions noted are these: [ATP] 31.8 μM. Put shortly: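 Phosphorylation of a common biotinylated peptide by each catalytic domain is measured by HTRF. The ATP-started reaction runs 120 min at room temperature before EDTA quench and detection.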
On the technique in general: Time-resolved FRET reads energy transfer from a long-lived donor to a nearby acceptor.

Experiment [2] has as its target JAK2 (recombinant purified GST-tagged catalytic domain) (Homo sapiens (Human), UniProt O60674). In words: Jak Biochemical HTRF Assay (JAK2). The conditions noted are these: [ATP] 8.5 μM.

JAK1 (recombinant purified GST-tagged catalytic domain), sequence (P23458 875-1153): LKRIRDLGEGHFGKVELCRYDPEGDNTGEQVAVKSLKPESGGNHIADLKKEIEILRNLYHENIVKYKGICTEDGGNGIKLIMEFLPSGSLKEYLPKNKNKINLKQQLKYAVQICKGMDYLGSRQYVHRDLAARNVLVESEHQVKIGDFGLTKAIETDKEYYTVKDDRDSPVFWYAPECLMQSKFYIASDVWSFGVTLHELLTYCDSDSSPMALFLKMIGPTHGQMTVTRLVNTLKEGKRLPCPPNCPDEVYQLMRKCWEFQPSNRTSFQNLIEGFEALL
JAK2 (recombinant purified GST-tagged catalytic domain), sequence (O60674 849-1124): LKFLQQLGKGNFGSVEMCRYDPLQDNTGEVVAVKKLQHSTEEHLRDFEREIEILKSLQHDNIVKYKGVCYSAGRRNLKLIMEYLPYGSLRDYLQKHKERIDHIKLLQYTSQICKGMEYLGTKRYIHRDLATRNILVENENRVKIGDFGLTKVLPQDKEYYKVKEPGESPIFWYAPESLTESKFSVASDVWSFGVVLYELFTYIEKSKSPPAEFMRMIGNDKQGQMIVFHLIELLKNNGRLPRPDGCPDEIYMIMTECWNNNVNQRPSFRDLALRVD

As a reminder, the pIC50 is the negative decadic logarithm of the IC50, by convention in mol/L. On to `CN(C)S(=O)(=O)c1ccc(Nc2nn(C3(CC#N)CCN(C(=O)C4CCOCC4)CC3)c3cc[nH]c(=O)c23)cc1` [Example 9-20, 4-({1-[4-(cyanomethyl)-1-(tetrahydro-2H-pyran-4-ylcarbonyl)piperidin-4-yl]-4-oxo-4,5-dihydro-1H-pyrazolo[4,3-c]pyridin-3-yl}amino)-N,N-dimethylbenzenesulfonamide], for which the negative-log IC50 (pIC50) was 9.51 in experiment [1] and 8.61 in experiment [2].

For `CC(C)(C)OC(=O)N1CCC(CC#N)(n2nc(Nc3ccc([C@]4(C(F)(F)F)CCCCN4)cc3)c3c(=O)[nH]ccc32)CC1` (single isomer, unassigned) [Example 21-16, (S or R)-tert-butyl 4-(cyanomethyl)-4-(4-oxo-3-(4-(2-(trifluoromethyl)piperidin-2-yl)phenylamino)-4,5-dihydropyrazolo[4,3-c]pyridin-1-yl)piperidine-1-carboxylate], the pIC50 in experiment [1] was 9.15; in experiment [2], 9.19.

Turning to `CC(C)(C)OC(=O)N1CCC(CC#N)(n2nc(Nc3ccc(C4(C(F)(F)F)CCN(Cc5ccccc5)C4)cc3)c3c(=O)[nH]ccc32)CC1` (single isomer, unassigned) [Example 5-280, (S or R) tert-butyl 4-(3-((4-(1-benzyl-3-(trifluoromethyl)pyrrolidin-3-yl)phenyl)amino)-4-oxo-4,5-dihydro-1H-pyrazolo[4,3-c]pyridin-1-yl)-4-(cyanomethyl)piperidine-1-carboxylate], the pIC50 in experiment [1] was 8.13; in experiment [2], 8.02.

Consider `CC(C)(C)OC(=O)N1CCC(CC#N)(n2nc(Nc3ccc(S(=O)(=O)N4CCCCC4)cc3)c3c(=O)[nH]ccc32)CC1` [Example 5-293, tert-butyl 4-(cyanomethyl)-4-(4-oxo-3-((4-(piperidin-1-ylsulfonyl)phenyl)amino)-4,5-dihydro-1H-pyrazolo[4,3-c]pyridin-1-yl)piperidine-1-carboxylate], for which the pIC50 in experiment [1] was 9.37; in experiment [2], 9.17.

For `Cc1cc(Nc2nn(C3(CC#N)CCN(C(=O)OC(C)(C)C)CC3)c3cc[nH]c(=O)c23)ccc1C(=O)N1CCSCC1` [Example 21-14, tert-butyl-4-(cyanomethyl)-4-(3-(3-methyl-4-(thiomorpholine-4-carbonyl)phenylamino)-4-oxo-4,5-dihydropyrazolo[4,3-c]pyridin-1-yl)piperidine-1-carboxylate], the figures for the pIC50 in experiment [1] and in experiment [2] were 9.48 and 9.49, respectively.

`Cc1cc(Nc2nn(C3(CC#N)CCN(c4cc(C(F)(F)F)ccn4)CC3)c3cc[nH]c(=O)c23)ccc1C(=O)N1CCSCC1` [Example 16-1, 2-(4-(3-(3-methyl-4-(thiomorpholine-4-carbonyl)phenylamino)-4-oxo-4,5-dihydropyrazolo[4,3-c]pyridin-1-yl)-1-(4-(trifluoromethyl)pyridin-2-yl)piperidin-4-yl)acetonitrile]: the pIC50 in experiment [1] is 8.56; in experiment [2], 8.51.

Regarding `CC(C)(C)N[C@H](c1ccc(Nc2nn([C@@]3(CC#N)CCOC[C@H]3F)c3cc[nH]c(=O)c23)cc1)C(F)(F)F` (single isomer, unassigned) [Example 5-267, 2-((3S,4S or 3R,4R)-4-(3-((4-((R or S)-1-(tert-butylamino)-2,2,2-trifluoroethyl)phenyl)amino)-4-oxo-4,5-dihydro-1H-pyrazolo[4,3-c]pyridin-1-yl)-3-fluorotetrahydro-2H-pyran-4-yl)acetonitrile], the pIC50 in experiment [1] was 8.62; in experiment [2], 8.40.

Consider `CN(C)[C@H]1CC[C@](CC#N)(n2nc(Nc3ccc4c(c3)CN(C(C)(C)C)S4(=O)=O)c3c(=O)[nH]ccc32)CC1` [Example 18-37, Trans 2-(1-(3-((2-(tert-butyl)-1,1-dioxido-2,3-dihydrobenzo[d]isothiazol-5-yl)amino)-4-oxo-4,5-dihydro-1H-pyrazolo[4,3-c]pyridin-1-yl)-4-(dimethylamino)cyclohexyl)acetonitrile], for which the pIC50 in experiment [1] is 9.64; in experiment [2], 8.35.

Turning to `COC(=O)N1CCC(CC#N)(n2nc(Nc3ccc4c(c3)CCC4(O)C(F)(F)F)c3c(=O)[nH]ccc32)CC1` (single isomer, unassigned) [Example 5-144, (R or S)-methyl 4-(cyanomethyl)-4-(3-((1-hydroxy-1-(trifluoro-methyl)-2,3-dihydro-1H-inden-5-yl)amino)-4-oxo-4,5-dihydro-1H-pyrazolo[4,3-c]pyridin-1-yl)piperidine-1-carboxylate], the results for the pIC50 in experiment [1] and in experiment [2] were 10.00 and 9.68, respectively.

On to `CN1Cc2cc(Nc3nn([C@]4(CC#N)CC[C@@H](C(=O)OC(C)(C)C)OC4)c4cc[nH]c(=O)c34)ccc2S1(=O)=O` [Example 5-55, (2S,5S)-tert-butyl 5-(cyanomethyl)-5-(3-((2-methyl-1,1-dioxido-2,3-dihydrobenzo[d]isothiazol-5-yl)amino)-4-oxo-4,5-dihydro-1H-pyrazolo[4,3-c]pyridin-1-yl)tetrahydro-2H-pyran-2-carboxylate], for which the pIC50 was 10.30 in experiment [1] and 9.92 in experiment [2].

For the compound `N#CCC1(n2nc(Nc3ccc(Cl)cc3)c3c(=O)[nH]ccc32)CCC(O)CC1` (stereo not drawn) [Example 18-12, Cis and trans 2-(1-(3-((4-chlorophenyl)amino)-4-oxo-4,5-dihydro-1H-pyrazolo[4,3-c]pyridin-1-yl)-4-hydroxycyclohexyl)acetonitrile], the results for the pIC50 in experiment [1] and in experiment [2] were 8.27 and 7.41, respectively.

Consider `CC(C)(C)OC(=O)N1CCC(CC#N)(n2nc(Nc3ccc(S(=O)(=O)NCC4CC4)c(F)c3)c3c(=O)[nH]ccc32)CC1` [Example 5-296, tert-butyl 4-(cyanomethyl)-4-(3-((4-(N-(cyclopropylmethyl)sulfamoyl)-3-fluorophenyl)amino)-4-oxo-4,5-dihydro-1H-pyrazolo[4,3-c]pyridin-1-yl)piperidine-1-carboxylate], for which the pIC50 in experiment [1] was 9.19; in experiment [2] it was 9.04.

In the case of `CN(C)S(=O)(=O)c1ccc(Nc2nn(C3(CC#N)CCN(CCCc4ccccc4)CC3)c3cc[nH]c(=O)c23)cc1` [Example 8-15, 4-({1-[4-(cyanomethyl)-1-(3-phenylpropyl)piperidin-4-yl]-4-oxo-4,5-dihydro-1H-pyrazolo[4,3-c]pyridin-3-yl}amino)-N,N-dimethylbenzenesulfonamide], the pIC50 is 9.28 in experiment [1] and 8.55 in experiment [2].

Take `Cc1cc(Nc2nn([C@@]3(CC#N)CCCC[C@H]3F)c3cc[nH]c(=O)c23)ccc1C(=O)N1CCOCC1` [Example 5-151, 2-((1R,2R)-2-fluoro-1-(3-((3-methyl-4-(morpholine-4-carbonyl)phenyl)amino)-4-oxo-4,5-dihydro-1H-pyrazolo[4,3-c]pyridin-1-yl)cyclohexyl)acetonitrile]: the pIC50 in experiment [1] is 10.05; in experiment [2], 10.00.

Consider `CC(C)(C)OC(=O)[C@@H]1CC[C@@](CC#N)(n2nc(Nc3ccc(S(=O)(=O)N4CCOCC4)cc3)c3c(=O)[nH]ccc32)CO1` [Example 5-203, (2S,5S)-tert-butyl 5-(cyanomethyl)-5-(3-((4-(morpholinosulfonyl)phenyl)amino)-4-oxo-4,5-dihydro-1H-pyrazolo[4,3-c]pyridin-1-yl)tetrahydro-2H-pyran-2-carboxylate], for which the pIC50 was 9.82 in experiment [1] and 9.57 in experiment [2].

As to `CN(C)S(=O)(=O)c1ccc(Nc2nn([C@]3(CC#N)CC[C@@H](C(=O)OC(C)(C)C)OC3)c3cc[nH]c(=O)c23)cc1` [Example 5-43, (2S,5S)-tert-butyl 5-(cyanomethyl)-5-(3-((4-(N,N-dimethylsulfamoyl)phenyl)amino)-4-oxo-4,5-dihydro-1H-pyrazolo[4,3-c]pyridin-1-yl)tetrahydro-2H-pyran-2-carboxylate], the pIC50 in experiment [1] was 10.15; in experiment [2], 9.85.

Take `CCOC(=O)C(C)(C)C(O)(c1ccc(Nc2nn([C@]3(CC#N)CCCOC3)c3cc[nH]c(=O)c23)cc1)C(F)(F)F` (single isomer, unassigned) [Example 5-112, (S or R)-ethyl 3-(4-((1-((3S)-3-(cyanomethyl)tetrahydro-2H-pyran-3-yl)-4-oxo-4,5-dihydro-1H-pyrazolo[4,3-c]pyridin-3-yl)amino)phenyl)-4,4,4-trifluoro-3-hydroxy-2,2-dimethylbutanoate]: the negative-log IC50 (pIC50) in experiment [1] is 8.97; in experiment [2], 8.60.

As for `Cc1cc(Nc2nn([C@]3(CC#N)CCCOC3)c3cc[nH]c(=O)c23)ccc1C(=O)N1CCOCC1` [Example 5-118, (S)-2-(3-(3-((3-methyl-4-(morpholine-4-carbonyl)phenyl)amino)-4-oxo-4,5-dihydro-1H-pyrazolo[4,3-c]pyridin-1-yl)tetrahydro-2H-pyran-3-yl)acetonitrile], the pIC50 was 9.47 in experiment [1] and 9.12 in experiment [2].

`N#CC[C@]1(n2nc(Nc3ccc(Cl)cc3)c3c(=O)[nH]ccc32)CC[C@H](Nc2ccccc2)CC1` [Example 18-14, Trans 2-(1-(3-((4-chlorophenyl)amino)-4-oxo-4,5-dihydro-1H-pyrazolo[4,3-c]pyridin-1-yl)-4-(phenylamino)cyclohexyl)acetonitrile]: the values for the pIC50 in experiment [1] and in experiment [2] were 8.77 and 7.49, respectively.

Regarding `CC(C)(C)OC(=O)[C@@H]1CC[C@@](CC#N)(n2nc(Nc3ccc(C4(C(F)(F)F)CCNC4)cc3)c3c(=O)[nH]ccc32)CO1` (single isomer, unassigned) [Example 5-285, (2S,5S)-tert-butyl 5-(cyanomethyl)-5-(4-oxo-3-((4-((R or S)-3-(trifluoromethyl)pyrrolidin-3-yl)phenyl)amino)-4,5-dihydro-1H-pyrazolo[4,3-c]pyridin-1-yl)tetrahydro-2H-pyran-2-carboxylate], the negative logarithm of the IC50 (pIC50) was 9.82 in experiment [1] and 9.68 in experiment [2].

As for `N#CC[C@@]1(n2nc(Nc3ccc(Cl)cc3)c3c(=O)[nH]ccc32)CCOC1` (single isomer, unassigned) [Example 5-241, [(3R or 3S)-3-{3-[(4-chlorophenyl)amino]-4-oxo-4,5-dihydro-1H-pyrazolo[4,3-c]pyridin-1-yl}tetrahydrofuran-3-yl]acetonitrile], the pIC50 was 8.58 in experiment [1] and 7.63 in experiment [2].
